Source: PubChem BioAssay (NCI)
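In this assay, cells in 96-well plates receive the compound at five concentrations for 48 hours. Endpoints are linearly interpolated between the surrounding concentrations. GI50 is the concentration that inhibits growth by half. TGI denotes the concentration required for complete inhibition of growth.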

Assays:
Assay in all cases: inhibition of tumour cell growth, NCI panel, 48 h
ACHN renal = tested on: ACHN renal
TK-10 renal = tested on: TK-10 renal
UO-31 renal = tested on: UO-31 renal
A498 renal = tested on: A498 renal
MALME-3M melanoma = tested on: MALME-3M melanoma
NCI/ADR-RES ovarian = tested on: NCI/ADR-RES ovarian
UACC-257 melanoma = tested on: UACC-257 melanoma
HL-60(TB) leukemia = tested on: HL-60(TB) leukemia
HS 578T breast = tested on: HS 578T breast
SK-OV-3 ovarian = tested on: SK-OV-3 ovarian
T-47D breast = tested on: T-47D breast
K-562 leukemia = tested on: K-562 leukemia
CCRF-CEM leukemia = tested on: CCRF-CEM leukemia
NCI-H226 lung = tested on: NCI-H226 lung
HOP-62 NSCLC = tested on: HOP-62 NSCLC
SF-295 CNS = tested on: SF-295 CNS
SK-MEL-2 melanoma = tested on: SK-MEL-2 melanoma
UACC-62 melanoma = tested on: UACC-62 melanoma
HCT-15 colon = tested on: HCT-15 colon
HT29 colon = tested on: HT29 colon
U251 CNS = tested on: U251 CNS
SNB-75 CNS = tested on: SNB-75 CNS
EKVX NSCLC = tested on: EKVX NSCLC
MDA-MB-435 = tested on: MDA-MB-435
RXF 393 renal = tested on: RXF 393 renal
KM12 colon = tested on: KM12 colon
OVCAR-4 ovarian = tested on: OVCAR-4 ovarian
SW-620 colon = tested on: SW-620 colon
MCF7 breast = tested on: MCF7 breast
CAKI-1 renal = tested on: CAKI-1 renal
MOLT-4 leukemia = tested on: MOLT-4 leukemia
SNB-19 CNS = tested on: SNB-19 CNS
BT-549 breast = tested on: BT-549 breast
HCC-2998 colon = tested on: HCC-2998 colon
SR leukemia = tested on: SR leukemia
M14 melanoma = tested on: M14 melanoma
A549 NSCLC = tested on: A549 NSCLC
OVCAR-5 ovarian = tested on: OVCAR-5 ovarian
OVCAR-8 ovarian = tested on: OVCAR-8 ovarian
NCI-H522 lung = tested on: NCI-H522 lung
COLO 205 colon = tested on: COLO 205 colon
DU-145 prostate = tested on: DU-145 prostate
SF-268 CNS = tested on: SF-268 CNS
OVCAR-3 ovarian = tested on: OVCAR-3 ovarian
IGROV1 ovarian = tested on: IGROV1 ovarian
SN12C renal = tested on: SN12C renal
PC-3 prostate = tested on: PC-3 prostate
SK-MEL-5 melanoma = tested on: SK-MEL-5 melanoma
SK-MEL-28 melanoma = tested on: SK-MEL-28 melanoma
786-0 renal = tested on: 786-0 renal
RPMI-8226 leukemia = tested on: RPMI-8226 leukemia
SF-539 CNS = tested on: SF-539 CNS
MDA-MB-231 breast = tested on: MDA-MB-231 breast
NCI-H460 lung = tested on: NCI-H460 lung
HOP-92 NSCLC = tested on: HOP-92 NSCLC

Compound: NC(N)=Nc1ccc(Nc2cccc(Nc3ccc(Cl)c(C(F)(F)F)c3)c2)cn1
- GI50 (ACHN renal): 3.58 µM
- TGI (ACHN renal): 17.5 µM
- GI50 (TK-10 renal): 2.77 µM
- TGI (TK-10 renal): 7.58 µM
- GI50 (UO-31 renal): 4.33 µM
- TGI (UO-31 renal): 38.3 µM
- GI50 (A498 renal): 1.69 µM
- TGI (A498 renal): 4.72 µM
- GI50 (MALME-3M melanoma): 2.01 µM
- TGI (MALME-3M melanoma): 5.36 µM
- GI50 (NCI/ADR-RES ovarian): 21.6 µM
- TGI (NCI/ADR-RES ovarian): 93.4 µM
- GI50 (UACC-257 melanoma): 2.39 µM
- TGI (UACC-257 melanoma): 6.53 µM
- GI50 (HL-60(TB) leukemia): 2.31 µM
- TGI (HL-60(TB) leukemia): 5.74 µM
- GI50 (HS 578T breast): 2.04 µM
- TGI (HS 578T breast): 4.94 µM
- GI50 (SK-OV-3 ovarian): 2.81 µM
- TGI (SK-OV-3 ovarian): 6.91 µM
- GI50 (T-47D breast): 1.85 µM
- TGI (T-47D breast): 4.87 µM
- GI50 (K-562 leukemia): 2.54 µM
- TGI (K-562 leukemia): > 100 µM

Compound: CCNC(=O)Oc1ccc(/C(=C(/C)c2ccccc2)c2ccc(OCCN3CCCCCC3)cc2)cc1
- GI50 (CCRF-CEM leukemia): 2.92 µM
- TGI (CCRF-CEM leukemia): 28.7 µM
- GI50 (NCI-H226 lung): 2.97 µM
- TGI (NCI-H226 lung): 10.8 µM
- GI50 (HOP-62 NSCLC): 2.05 µM
- TGI (HOP-62 NSCLC): 4.82 µM
- GI50 (ACHN renal): 3.37 µM
- TGI (ACHN renal): 10.6 µM
- GI50 (SF-295 CNS): 1.98 µM
- TGI (SF-295 CNS): 3.94 µM
- GI50 (SK-MEL-2 melanoma): 2.48 µM
- TGI (SK-MEL-2 melanoma): 6.76 µM
- GI50 (UACC-62 melanoma): 1.91 µM
- TGI (UACC-62 melanoma): 3.87 µM
- GI50 (HCT-15 colon): 1.53 µM
- TGI (HCT-15 colon): 3.33 µM
- GI50 (HT29 colon): 1.27 µM
- TGI (HT29 colon): 3.27 µM
- GI50 (U251 CNS): 1.58 µM
- TGI (U251 CNS): 3.2 µM
- GI50 (SNB-75 CNS): 1.85 µM
- TGI (SNB-75 CNS): 4.36 µM
- GI50 (TK-10 renal): 5.83 µM
- TGI (TK-10 renal): 19.9 µM
- GI50 (UO-31 renal): 1.52 µM
- TGI (UO-31 renal): 4.43 µM
- GI50 (EKVX NSCLC): 3.24 µM
- TGI (EKVX NSCLC): 12.2 µM
- GI50 (MDA-MB-435): 1.7 µM
- TGI (MDA-MB-435): 3.29 µM
- GI50 (RXF 393 renal): 1.65 µM
- TGI (RXF 393 renal): 3.27 µM
- GI50 (A498 renal): 10.4 µM
- TGI (A498 renal): 24.7 µM
- GI50 (KM12 colon): 3 µM
- TGI (KM12 colon): 11.1 µM
- GI50 (OVCAR-4 ovarian): 3.05 µM
- TGI (OVCAR-4 ovarian): 11.8 µM
- GI50 (SW-620 colon): 2.11 µM
- TGI (SW-620 colon): 5.15 µM
- TGI (MCF7 breast): 2.6 µM
- GI50 (MALME-3M melanoma): 1.8 µM
- TGI (MALME-3M melanoma): 3.47 µM
- GI50 (CAKI-1 renal): 1.94 µM
- TGI (CAKI-1 renal): 4.28 µM
- GI50 (MOLT-4 leukemia): 2.4 µM
- TGI (MOLT-4 leukemia): 12.3 µM
- GI50 (SNB-19 CNS): 3.82 µM
- TGI (SNB-19 CNS): 13.4 µM
- GI50 (BT-549 breast): 1.71 µM
- TGI (BT-549 breast): 3.38 µM
- GI50 (HCC-2998 colon): 2 µM
- TGI (HCC-2998 colon): 3.89 µM
- GI50 (NCI/ADR-RES ovarian): 2.22 µM
- TGI (NCI/ADR-RES ovarian): 6.4 µM
- GI50 (SR leukemia): 2.04 µM
- TGI (SR leukemia): 6.59 µM
- GI50 (M14 melanoma): 1.8 µM
- TGI (M14 melanoma): 3.62 µM
- GI50 (A549 NSCLC): 3.26 µM
- TGI (A549 NSCLC): 13.1 µM
- GI50 (OVCAR-5 ovarian): 4.35 µM
- TGI (OVCAR-5 ovarian): 17.8 µM
- GI50 (UACC-257 melanoma): 1.88 µM
- TGI (UACC-257 melanoma): 3.87 µM
- GI50 (OVCAR-8 ovarian): 3.07 µM
- TGI (OVCAR-8 ovarian): 10.7 µM
- GI50 (NCI-H522 lung): 1.8 µM
- TGI (NCI-H522 lung): 3.75 µM
- GI50 (HL-60(TB) leukemia): 1.8 µM
- TGI (HL-60(TB) leukemia): 6.15 µM
- GI50 (COLO 205 colon): 1.56 µM
- TGI (COLO 205 colon): 2.98 µM
- GI50 (DU-145 prostate): 4.92 µM
- TGI (DU-145 prostate): 20.3 µM
- GI50 (SF-268 CNS): 4 µM
- TGI (SF-268 CNS): 18.6 µM
- GI50 (OVCAR-3 ovarian): 2.87 µM
- TGI (OVCAR-3 ovarian): 8.2 µM
- GI50 (IGROV1 ovarian): 3.64 µM
- TGI (IGROV1 ovarian): 14.8 µM
- GI50 (SN12C renal): 2.56 µM
- TGI (SN12C renal): 8.36 µM
- GI50 (HS 578T breast): 1.91 µM
- TGI (HS 578T breast): 4.67 µM
- GI50 (SK-OV-3 ovarian): 2.74 µM
- TGI (SK-OV-3 ovarian): 8.06 µM
- GI50 (PC-3 prostate): 1.74 µM
- TGI (PC-3 prostate): 4.19 µM
- GI50 (SK-MEL-5 melanoma): 1.74 µM
- TGI (SK-MEL-5 melanoma): 3.16 µM
- GI50 (SK-MEL-28 melanoma): 1.8 µM
- TGI (SK-MEL-28 melanoma): 3.62 µM
- GI50 (786-0 renal): 1.71 µM
- TGI (786-0 renal): 3.46 µM
- GI50 (T-47D breast): 1.15 µM
- TGI (T-47D breast): 6.04 µM
- GI50 (RPMI-8226 leukemia): 1.95 µM
- TGI (RPMI-8226 leukemia): 4.65 µM
- GI50 (SF-539 CNS): 1.74 µM
- TGI (SF-539 CNS): 3.21 µM
- GI50 (MDA-MB-231 breast): 2.25 µM
- TGI (MDA-MB-231 breast): 4.84 µM
- GI50 (K-562 leukemia): 1.82 µM
- TGI (K-562 leukemia): > 100 µM
- GI50 (NCI-H460 lung): 1.99 µM
- TGI (NCI-H460 lung): 4.14 µM
- GI50 (HOP-92 NSCLC): 1.23 µM
- TGI (HOP-92 NSCLC): 4.62 µM
